Experiments:
Pim-1 = biological target: T1, Pim-1 (Homo sapiens, UniProt P11309); experiment: TR-FRET assay of Pim kinase activity (phosphorylation of Bad Ser112), Pim-1; format: biochemical; settings: ATP 40 μM, read-out: IC50 Pim1
T1 construct: full-length human recombinant His6-labelled Pim-1, Pim-2 or Pim-3 protein; His6; made in house
How it was run: (§1)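 Full-length His6-tagged human Pim-1, -2 or -3 phosphorylate full-length His6-Bad at 40 μM ATP; phospho-Ser112 detected by TR-FRET (Eu anti-phosphoBad, APC anti-His6), 665/615 nm ratio. Compounds run at 10 concentrations in duplicate, typically top 30 μM; IC50 from 4-parameter logistic fit.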

Pim-2 = biological target: T2, Pim-2 (Homo sapiens, UniProt Q9P1W9); experiment: TR-FRET assay of Pim kinase activity (phosphorylation of Bad Ser112), Pim-2; format: biochemical; settings: ATP 40 μM, read-out: IC50 Pim2
T2 construct: full-length human recombinant His6-labelled Pim-1, Pim-2 or Pim-3 protein; His6; made in house
How it was run: as §1

Pim-3 = biological target: T3, Pim-3 (Homo sapiens, UniProt Q86V86); experiment: TR-FRET assay of Pim kinase activity (phosphorylation of Bad Ser112), Pim-3; format: biochemical; settings: ATP 40 μM, read-out: IC50 Pim3
T3 construct: full-length human recombinant His6-labelled Pim-1, Pim-2 or Pim-3 protein; His6; made in house
How it was run: as §1

CDK1 = CDK1 (Homo sapiens, UniProt P06493); experiment: Biochemical results, IC50 CDK1
PLK1 = PLK1 (Homo sapiens, UniProt P53350); experiment: Biochemical results, IC50 PLK1
EOL-1 = experiment: Cell viability assay (CellTiter-Blue), EOL-1; format: cell-based; settings: Homo sapiens, EOL1, read-out: EC50 EOL-1 μM (eosinophilic leukaemia), EOL-1 cells, read-out: EC50 EOL-1 μM (lymphoma);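 note: EOL-1 is an acute myeloid eosinophilic leukaemia line not a lymphoma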
Source text: (§2) The representative compounds of the invention are also screened as regards their effects on cell proliferation and viability, using a variety of tumoral cell lines of human source, representative of different pathological indications. These cell lines include:
Models of Haematological Cancers: • TF-1 (acute myelogenic leukaemia; AML M6 at the time of diagnosis); • K G-1 (AML; erythroleukaemia evolving into AML); • KG-1a (AML; subclone derived from immature KG-1); • EOL-1 (AML: eosinophilic leukaemia); • PL-21 (AML; M3); • ML-2 (AML; T-NHL evolving into T-ALL evolving into AML M4); • HL-60 (AML, M3); • Kasumi-1 (AML); • GDM-1 (AML); • K-562 (CML—chronic myelogenic leukaemia; blastic crisis); • JURL-MK1 (CML; blastic crisis); • DND-41 (T-ALL—T-cell acute lymphoblastic leukaemia); • Jurkat (T-ALL); NALM-6 (B-ALL B-cell ALL); • CEM (ALL; lymphosarcoma evolving into ALL); • Jeko-1 (B-NHL—B-cell non-Hodgkin lymphoma; lymphoma with coat cells derived from a large-cell variant in leukaemic transformation); • WSU-DLCL2 (B-NHL; diffuse lymphoma with large B cells); • RL (B-NHL; undifferentiated diffuse); • OCl-Ly10 (B-NHL); • DoHH-2 (B-NHL); • RPMI-8226 (MM—multiple myelomas); • JVM-2 (B-CLL—B-cell chronic lymphocytic leukaemia); and • JVM-3 (B-CLL).
(§3) In order to measure the viability, the tumour cells are incubated in 96-well or 384-well format for 48, 72 or 96 hours, preferably 72 hours, with a compound of the invention at dilutions of a factor 3, with, in general, nine doses in total, the highest dose being equal to 10 μM or 30 μM. The cell viability is evaluated by adding CellTiter-Blue® (Promega, Madison, Wis., United States) for 4 hours and endpoint readings are taken using a SpectraMax Genmini EM plate reader (Molecular Devices, Sunnyvale, Calif., United States). The CellTiter-Blue® cell viability assay measures the ability of the cells in culture to reduce resazurin to resorufin, the intensity of the fluorescence signal being directly proportional to the number of live cells. The EC50 represents the concentration of compound that leads to a 50% reduction of the viability/proliferative expansion of the cells.

MV4-11 = experiment: Cell viability assay (CellTiter-Blue), MV4-11; format: cell-based; settings: Homo sapiens, read-out: EC50 MV4-11 μM (acute myeloid leukemia), MV4-11 cells, read-out: EC50 MV4-11 μM (myeloma)
Experimental: as §2, §3

phosphoBAD (JEKO) = experiment: Level of phosphorylation of Bad by ELISA, JEKO cell line; format: cell-based; settings: Homo sapiens, JEKO cells, 3 hours at 37° C.
Experimental: (§4) The activity of the molecules is evaluated on the JEKO or DND-41 cell line by measuring the level of phosphorylation of Bad and the total Bad content, via the ELISA technique.
(§5) The JEKO or DND-41 cells are resuspended at a concentration of 500 000 cells per ml. The cells are then diluted in RPMI-1640 medium containing 20% foetal calf serum. 225 μl of cells are placed in a plate. Serial dilutions of the molecules are then performed (8 points, three-fold dilution, range started at 10 mM). Each dilution point is then diluted to 1/100 in medium. Next, 25 μl of each of the concentrations are added to the cells and then incubated for 3 hours at 37° C.
(§6) 100 μl of the cells are transferred into a plate treated with poly-D-Lysine. The plate is then incubated for 5-10 minutes at 37° C. and then centrifuged for 5 minutes at 1500 rpm. A volume of 100 μl of 8% fixing solution (solution of formaldehyde in PBS buffer) is added to each of the wells. After covering with a self-adhesive film and a lid, the plate is incubated for 20 minutes at room temperature and then stored at 4° C. overnight.
(§7) Next, the liquid is removed and two successive washes are performed with washing buffer. 100 μl of quenching buffer are added, followed by incubating for 15 minutes at room temperature. After washing, 100 μl of […] at room temperature. After washing, 50 μl of primary antibody diluted to 1/250 for pBAD (Cell Signaling Cat#5284) and to 1/500 for Bad (MBL Cat#591) are added to each of the plates. Each plate is incubated for 2 hours at room temperature. After two washes, 50 μl of secondary antibody (diluted to 1/16) are added to the pBAD plate (tebu-bio ref; FE-021) and 50 μl of the HRP-conjugated IgG secondary antibody (Santa Cruz Cat #SC-2004; diluted to 1/1000) are added to the Bad plate. Incubation for 1 hour at room temperature is performed. Four washes with the washing solution are performed, followed by three washes with PBS. Finally, 100 μl of the developing solution are added, followed by incubation for 10 minutes. Finally, 100 μl of the quenching solution are added, before reading at 450 nm.

phosphoBAD (DND-41) = experiment: Level of phosphorylation of Bad by ELISA, DND-41 cell line; format: cell-based; settings: Homo sapiens, DND41, DND-41 cells, 3 hours at 37° C.
Experimental: as §4, §5, §6, §7

MOLM-13 = experiment: Cell viability assay (CellTiter-Blue), MOLM-13; format: cell-based; settings: Homo sapiens, read-out: EC50 MOLM-13 μM, MOLM-13 cells, read-out: EC50 MOLM-13 μM (myeloma)
Experimental: as §2, §3

Chain of PLK1 (P53350 whole entry, species assumed): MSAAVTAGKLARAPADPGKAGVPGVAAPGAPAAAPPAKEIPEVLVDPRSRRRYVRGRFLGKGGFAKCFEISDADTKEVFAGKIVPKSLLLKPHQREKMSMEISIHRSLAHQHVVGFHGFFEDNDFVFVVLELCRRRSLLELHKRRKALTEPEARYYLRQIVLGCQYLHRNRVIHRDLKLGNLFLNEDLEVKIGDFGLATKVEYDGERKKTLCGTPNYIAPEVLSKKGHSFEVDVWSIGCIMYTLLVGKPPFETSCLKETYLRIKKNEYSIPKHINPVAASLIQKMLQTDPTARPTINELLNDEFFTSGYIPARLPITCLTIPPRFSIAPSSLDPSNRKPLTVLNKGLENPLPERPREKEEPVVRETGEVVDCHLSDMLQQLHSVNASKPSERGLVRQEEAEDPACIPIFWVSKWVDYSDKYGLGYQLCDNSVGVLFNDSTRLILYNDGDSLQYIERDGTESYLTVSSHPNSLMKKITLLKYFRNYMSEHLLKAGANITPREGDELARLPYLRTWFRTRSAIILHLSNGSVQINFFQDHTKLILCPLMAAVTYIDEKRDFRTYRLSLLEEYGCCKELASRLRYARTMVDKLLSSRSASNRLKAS
T2 sequence (Q9P1W9 whole entry): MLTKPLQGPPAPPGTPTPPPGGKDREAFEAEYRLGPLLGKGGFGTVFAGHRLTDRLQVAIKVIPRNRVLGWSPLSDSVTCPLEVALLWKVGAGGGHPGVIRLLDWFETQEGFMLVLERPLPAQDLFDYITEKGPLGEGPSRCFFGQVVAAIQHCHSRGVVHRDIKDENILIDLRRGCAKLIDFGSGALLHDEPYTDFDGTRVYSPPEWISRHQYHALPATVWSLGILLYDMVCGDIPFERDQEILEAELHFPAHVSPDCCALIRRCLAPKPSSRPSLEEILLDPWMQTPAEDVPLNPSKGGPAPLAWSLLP
T1 sequence (P11309 whole entry): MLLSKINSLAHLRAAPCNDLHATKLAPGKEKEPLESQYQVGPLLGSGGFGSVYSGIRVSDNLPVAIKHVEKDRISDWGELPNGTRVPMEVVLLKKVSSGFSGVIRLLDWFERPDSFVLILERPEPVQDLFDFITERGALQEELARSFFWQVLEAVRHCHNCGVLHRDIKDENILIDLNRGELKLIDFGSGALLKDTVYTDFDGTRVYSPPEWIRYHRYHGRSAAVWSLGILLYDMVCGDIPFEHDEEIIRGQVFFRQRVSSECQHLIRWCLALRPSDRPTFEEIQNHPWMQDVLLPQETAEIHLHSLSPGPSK
Chain of CDK1 (P06493 whole entry, species assumed): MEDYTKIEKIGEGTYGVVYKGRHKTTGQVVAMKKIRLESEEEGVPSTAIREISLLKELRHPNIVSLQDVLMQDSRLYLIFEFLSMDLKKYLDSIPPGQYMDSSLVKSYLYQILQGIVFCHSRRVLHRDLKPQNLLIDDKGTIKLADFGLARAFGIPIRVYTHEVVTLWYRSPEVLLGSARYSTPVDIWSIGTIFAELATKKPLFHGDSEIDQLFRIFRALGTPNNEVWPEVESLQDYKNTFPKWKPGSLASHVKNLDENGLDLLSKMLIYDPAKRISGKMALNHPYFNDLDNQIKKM
Chain of CDK1 (P14635 whole entry partner, species assumed): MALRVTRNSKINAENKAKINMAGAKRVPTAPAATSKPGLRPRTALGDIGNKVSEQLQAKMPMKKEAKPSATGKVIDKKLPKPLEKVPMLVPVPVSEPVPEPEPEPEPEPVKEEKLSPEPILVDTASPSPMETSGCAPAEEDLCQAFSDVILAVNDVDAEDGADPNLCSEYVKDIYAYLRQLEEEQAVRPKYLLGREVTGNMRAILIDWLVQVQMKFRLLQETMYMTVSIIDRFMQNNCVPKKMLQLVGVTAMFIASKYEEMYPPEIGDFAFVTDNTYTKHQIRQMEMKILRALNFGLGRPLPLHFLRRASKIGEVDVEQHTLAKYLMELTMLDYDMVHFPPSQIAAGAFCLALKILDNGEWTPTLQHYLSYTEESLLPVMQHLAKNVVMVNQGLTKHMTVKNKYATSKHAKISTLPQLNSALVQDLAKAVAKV

Row | SMILES | IC50 (Pim-1) [nM] | IC50 (Pim-2) [nM] | IC50 (Pim-3) [nM] | IC50 (CDK1) [nM] | IC50 (PLK1) [nM] | EC50 (EOL-1) [nM] | EC50 (MV4-11) [nM] | IC50 (phosphoBAD (JEKO)) [nM] | IC50 (phosphoBAD (DND-41)) [nM] | EC50 (MOLM-13) [nM]
1 | CN1CCC(NC(=O)c2ccc(-c3c(F)cnc4[nH]c5cnc(-c6cccnc6)cc5c34)cc2)CC1 [Example 22, 4-[3-fluoro-6-(pyridin-3-yl)-9H-pyrrolo[2,3-b:5,4-c′]dipyridin-4-yl]-N-(1-methylpiperidin-4-yl)benzamide] | < 100 | 100 to 1000 | < 100 | 1000 to 5000 | 1000 to 5000 | 100 to 1000 | 100 to 1000 | 1000 to 5000 |  | 
2 | CN(C)CCN(C)C(=O)c1ccc(-c2c(F)cnc3[nH]c4cnc(-c5cccnc5)cc4c23)cc1 [Example 23, N-[2-(dimethylamino)ethyl]-4-[3-fluoro-6-(pyridin-3-yl)-9H-pyrrolo[2,3-b:5,4-c′]dipyridin-4-yl]-N-methylbenzamide] | < 100 | < 100 | < 100 | 1000 to 5000 | 100 to 1000 |  |  | 100 to 1000 | 100 to 1000 | 
3 | CN1CCN(CCNC(=O)c2ccc(-c3c(F)cnc4[nH]c5cnc(-c6cccnc6)cc5c34)cc2)CC1 [Example 24, 4-[3-fluoro-6-(pyridin-3-yl)-9H-pyrrolo[2,3-b:5,4-c′]dipyridin-4-yl]-N-[2-(4-methylpiperazin-1-yl)ethyl]benzamide] | < 100 | 1000 to 5000 | < 100 | 1000 to 5000 | 1000 to 5000 | 100 to 1000 | 100 to 1000 | 100 to 1000 | 1000 to 5000 | 
4 | CN1CCC(CNC(=O)c2ccc(-c3c(F)cnc4[nH]c5cnc(-c6cccnc6)cc5c34)cc2)CC1 [Example 25, 4-[3-fluoro-6-(pyridin-3-yl)-9H-pyrrolo[2,3-b:5,4-c′]dipyridin-4-yl]-N-[(1-methylpiperidin-4-yl)methyl]benzamide] | < 100 | 1000 to 5000 | < 100 | 1000 to 5000 | 1000 to 5000 | 100 to 1000 | 100 to 1000 | 1000 to 5000 | 100 to 1000 | 
5 | CC(C)(N)CNC(=O)c1ccc(-c2c(F)cnc3[nH]c4cnc(-c5cccnc5)cc4c23)cc1 [Example 26, N-(2-amino-2-methylpropyl)-4-[3-fluoro-6-(pyridin-3-yl)-9H-pyrrolo[2,3-b:5,4-c′]dipyridin-4-yl]benzamide] | < 100 | < 100 | < 100 | 1000 to 5000 | 100 to 1000 |  |  | 1000 to 5000 |  | 
6 | CN(C)CCCNC(=O)c1ccc(-c2c(F)cnc3[nH]c4cnc(-c5cnn(C)c5)cc4c23)cc1 [Example 38] | < 100 | < 100 | < 100 | 100 to 1000 | 1000 to 5000 | < 100 | 100 to 1000 |  |  | 100 to 1000
